The term pIC50 denotes the IC50 on a negative log10 scale, so that one unit is a factor of ten. As a reminder, the GI50 is the concentration that inhibits growth by half.

pIC50: −log10 of the molar value.

Consider 24 compounds from patent publication US20260159486A1, “BENZO[H]QUINAZOLINE-4-AMINE DERIVATIVES FOR THE TREATMENT OF CANCER” (Redona Therapeutics, Inc., priority 2021, published 2026).

For assay [1], the target named is T1, recombinant human CLK3 (Homo sapiens, UniProt P49761).
T1 construct: purchased Thermo Fisher Scientific PV3826
Put plainly: CLK3 kinase assay (LANCE Ultra). To be noted: CLK3 0.5 nM, ATP 300 μM, 3 hours at 30° C. The assay is classed as biochemical. In outline: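 Recombinant human CLK3 (0.5 nM) with ULight-CREBtide (50 nM) and 300 μM ATP, 3 h at 30 °C in kinase buffer; EDTA stop, then Eu-anti-phospho-CREB antibody (2 nM, 1 h RT), TR-FRET read at 665/620 nm. Inhibition normalized to DMSO and no-ATP wells; IC50 from 4-parameter fit, ten 1:3 concentrations in duplicate.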
In general terms: In TR-FRET formats the signal depends on donor and acceptor labels being close together.

Assay [2] concerns CAL-51 cells. Put plainly: CAL-51 proliferation assay. The class given is cell-based. The following applies: YO-PRO-1 Iodide readout. An outline of the steps: (§1)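 Cells seeded at 750 per well, treated next day for 72 h at 37 °C with 0.5% final DMSO. Cell number read by YO-PRO-1 fluorescence after lysis, normalized to DMSO (100%) and time-zero cells (0%). GI50 from 4-parameter logistic fit, maximum constrained to 100%.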

Assay [3] has as its system MDA-MB-231 cells. Put plainly: MDA-MB-231 proliferation assay. The class given is cell-based. The following applies: YO-PRO-1 Iodide readout. An outline of the steps:
as §1

T1 sequence (P49761 whole entry): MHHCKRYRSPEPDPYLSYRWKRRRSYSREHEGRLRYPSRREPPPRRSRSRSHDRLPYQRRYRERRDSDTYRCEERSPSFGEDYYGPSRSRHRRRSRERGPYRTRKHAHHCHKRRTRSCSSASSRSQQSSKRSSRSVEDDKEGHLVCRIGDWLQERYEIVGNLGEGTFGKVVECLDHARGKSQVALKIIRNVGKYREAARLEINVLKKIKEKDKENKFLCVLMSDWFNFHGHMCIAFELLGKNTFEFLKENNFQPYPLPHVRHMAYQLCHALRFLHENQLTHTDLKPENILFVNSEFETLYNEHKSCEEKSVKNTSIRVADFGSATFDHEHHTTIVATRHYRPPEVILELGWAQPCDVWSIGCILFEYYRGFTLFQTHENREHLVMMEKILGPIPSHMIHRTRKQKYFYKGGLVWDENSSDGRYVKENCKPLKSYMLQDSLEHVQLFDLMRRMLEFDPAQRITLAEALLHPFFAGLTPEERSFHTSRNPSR

As to `COCCN[C@H]1CC[C@H](Oc2ccc3c(c2N(C)CCC#N)CC(C)(C)c2c(N)ncnc2-3)CC1` [Example 53, 3-[[4-amino-8-[trans-4-(2-methoxyethylamino)cyclohexoxy]-5,5-dimethyl-6H-benzo[h]quinazolin-7-yl]-methyl-amino]propanenitrile], in assay [1], the negative logarithm of the IC50 (pIC50) was greater than 7.52. For the same compound, the GI50 in assay [2] (Homo sapiens, CAL-51, 72 h) was less than 100 nM; in assay [3] (Homo sapiens, MDA-MB-231, 72 h), less than 100 nM.
Regarding `CC(C)CCN(C)c1c(O[C@H]2CC[C@H](N)CC2)ccc2c1CC(C)(C)c1c(N)ncnc1-2` [Example 104, 8-(trans-4-aminocyclohexoxy)-N7-isopentyl-N7,5,5-trimethyl-6H-benzo[h]quinazoline-4,7-diamine], the pIC50 in assay [1] was 6.00 to 7.00. Also, the GI50 is 100 to 2000 nM in assay [2] (Homo sapiens, CAL-51, 72 h) and greater than 2000 nM in assay [3] (Homo sapiens, MDA-MB-231, 72 h).
As to `CN(CC#N)c1c(O[C@H]2CC[C@H](N)CC2)ccc2c1CC(C)(C)c1c(N)ncnc1-2` [Example 33, 2-[[4-amino-8-(trans-4-aminocyclohexoxy)-5,5-dimethyl-6H-benzo[h]quinazolin-7-yl]-methyl-amino]acetonitrile], in assay [1], the negative-log IC50 (pIC50) was greater than 7.52. The GI50 in assay [2] (Homo sapiens, CAL-51, 72 h) was less than 100 nM; in assay [3] (Homo sapiens, MDA-MB-231, 72 h) it was 100 to 2000 nM.
Regarding `COC1CCN(c2c(O[C@H]3CC[C@H](N)CC3)ccc3c2CC(C)(C)c2c(N)ncnc2-3)C1` (single isomer, unassigned) [Example 73, 8-(trans-4-aminocyclohexoxy)-7-(3-methoxypyrrolidin-1-yl)-5,5-dimethyl-6H-benzo[h]quinazolin-4-amine], the pIC50 in assay [1] was 7.00 to 7.52. Moreover, the 50% growth inhibitory concentration (GI50) in assay [2] (72 hours) and in assay [3] (72 hours) was less than 100 nM throughout.
Turning to `CC(CCC#N)c1c(O[C@H]2CC[C@H](N)CC2)ccc2c1CC(C)(C)c1c(N)ncnc1-2` (stereo partly drawn) [Example 97, 4-[4-amino-8-(trans-4-aminocyclohexoxy)-5,5-dimethyl-6H-benzo[h]quinazolin-7-yl]pentanenitrile], in assay [1], the pIC50 was greater than 7.52. Besides, the concentration for 50% growth inhibition (GI50) was less than 100 nM in assay [2] (Homo sapiens, CAL-51, 72 h) and less than 100 nM in assay [3] (Homo sapiens, MDA-MB-231, 72 h).
Consider `COc1ccc2c(c1NC[C@@H]1CNC(=O)O1)CC(C)(C)c1c(N)ncnc1-2` [Example 82, (5R)-5-[[(4-amino-8-methoxy-5,5-dimethyl-6H-benzo[h]quinazolin-7-yl)amino]methyl]oxazolidin-2-one], for which the negative logarithm of the IC50 (pIC50) in assay [1] was greater than 7.52. In addition, the GI50 in assay [2] (Homo sapiens, CAL-51, 72 h) is less than 100 nM; in assay [3] (Homo sapiens, MDA-MB-231, 72 h) it was 100 to 2000 nM.
Consider `CCN(CCO)c1c(O[C@H]2CC[C@@H](N)CC2)ccc2c1CC(C)(C)c1c(N)ncnc1-2` [Example 22, 2-[[4-amino-8-(4-cis-aminocyclohexoxy)-5,5-dimethyl-6H-benzo[h]quinazolin-7-yl]-ethyl-amino]ethanol], for which the negative logarithm of the IC50 (pIC50) in assay [1] was greater than 7.52. Further, the GI50 is less than 100 nM in assay [2] (Homo sapiens, CAL-51, 72 h) and 100 to 2000 nM in assay [3] (Homo sapiens, MDA-MB-231, 72 h).
In the same order, the values of `CC1(C)Cc2c(ccc(O[C@H]3CC[C@H](N)CC3)c2N2CCCCC2)-c2ncnc(N)c21` [Example 9, 8-(trans-4-aminocyclohexoxy)-5,5-dimethyl-7-(1-piperidyl)-6H-benzo[h]quinazolin-4-amine] are greater than 7.52, less than 100 nM and 100 to 2000 nM.
In the same order, the values of `CC1(C)Cc2c(ccc(O[C@H]3CC[C@H](N4CCOCC4)CC3)c2NC[C@@H]2CNC(=O)O2)-c2ncnc(N)c21` [Example 131, (5R)-5-[[[4-amino-5,5-dimethyl-8-(trans-4-morpholinocyclohexoxy)-6H-benzo[h]quinazolin-7-yl]amino]methyl]oxazolidin-2-one] are greater than 7.52, 100 to 2000 nM and 100 to 2000 nM.
In the same order, the values of `CN(CC(C)(C)C(N)=O)c1c(O[C@H]2CC[C@H](N)CC2)ccc2c1CC(C)(C)c1c(N)ncnc1-2` [Example 88, 3-[[4-amino-8-(trans-4-aminocyclohexoxy)-5,5-dimethyl-6H-benzo[h]quinazolin-7-yl]-methyl-amino]-2,2-dimethyl-propanamide] are 7.00 to 7.52, 100 to 2000 nM and greater than 2000 nM.
For `CN1CCN(c2ccc3c(c2N(C)CCC#N)CC(C)(C)c2c(N)ncnc2-3)CC1` [Example 118, 3-[[4-amino-5,5-dimethyl-8-(4-methylpiperazin-1-yl)-6H-benzo[h]quinazolin-7-yl]-methyl-amino]propanenitrile], the pIC50 in assay [1] is greater than 7.52. Further, the concentration for 50% growth inhibition (GI50) in assay [2] (Homo sapiens, CAL-51, 72 h) is less than 100 nM; in assay [3] (Homo sapiens, MDA-MB-231, 72 h) it was less than 100 nM.
As to `CC1(C)Cc2c(ccc(O[C@H]3CC[C@@H](N)CC3)c2NC[C@@H]2CNC(=O)O2)-c2ncnc(N)c21` [Example 128, (5R)-5-[[[4-amino-8-(cis-4-aminocyclohexoxy)-5,5-dimethyl-6H-benzo[h]quinazolin-7-yl]amino]methyl]oxazolidin-2-one], the pIC50 in assay [1] is greater than 7.52. The 50% growth inhibitory concentration (GI50) in assay [2] (Homo sapiens, CAL-51, 72 h) is greater than 2000 nM; in assay [3] (Homo sapiens, MDA-MB-231, 72 h), greater than 2000 nM.
`CN(CC#N)C(=O)c1c(O[C@H]2CC[C@H](N)CC2)ccc2c1CC(C)(C)c1c(N)ncnc1-2` [Example 94, 4-amino-8-(trans-4-aminocyclohexoxy)-N-(cyanomethyl)-N,5,5-trimethyl-6H-benzo[h]quinazoline-7-carboxamide]: in assay [1], the negative logarithm of the IC50 (pIC50) was 6.00 to 7.00. Further, the 50% growth inhibitory concentration (GI50) is 100 to 2000 nM in assay [2] (Homo sapiens, CAL-51, 72 h) and greater than 2000 nM in assay [3] (Homo sapiens, MDA-MB-231, 72 h).
Take `CC1(C)Cc2c(ccc(O[C@H]3CC[C@H](N)CC3)c2NC[C@@H]2CNC(=O)O2)-c2ncnc(N)c21` [Example 129, (5R)-5-[[[4-amino-8-(trans-4-aminocyclohexoxy)-5,5-dimethyl-6H-benzo[h]quinazolin-7-yl]amino]methyl]oxazolidin-2-one]: in assay [1], the pIC50 is greater than 7.52. In addition, the GI50 in assay [2] (Homo sapiens, CAL-51, 72 h) was greater than 2000 nM; in assay [3] (Homo sapiens, MDA-MB-231, 72 h), greater than 2000 nM.
With `COCCN(C)c1c(O[C@H]2CC[C@@H](N)CC2)ccc2c1CC1(CCCC1)c1c(N)ncnc1-2` [Example 75, 8-(cis-4-aminocyclohexoxy)-N7-(2-methoxyethyl)-N7-methyl-spiro[6H-benzo[h]quinazoline-5,1′-cyclopentane]-4,7-diamine], in assay [1], the pIC50 is greater than 7.52. Also, the concentration for 50% growth inhibition (GI50) is less than 100 nM in assay [2] (Homo sapiens, CAL-51, 72 h) and 100 to 2000 nM in assay [3] (Homo sapiens, MDA-MB-231, 72 h).
In the same order, the values of `CC1(C)Cc2c(ccc(O[C@H]3CC[C@H](N)CC3)c2N2CC=CC2=O)-c2ncnc(N)c21` [Example 56, 1-[4-amino-8-(trans-4-aminocyclohexoxy)-5,5-dimethyl-6H-benzo[h]quinazolin-7-yl]-2H-pyrrol-5-one] are 6.00 to 7.00, greater than 2000 nM and greater than 2000 nM.
For `CN(c1c(O[C@H]2CC[C@H](N)CC2)ccc2c1CC(C)(C)c1c(N)ncnc1-2)S(=O)(=O)CCC#N` [Example 74, N-[4-amino-8-(trans-4-aminocyclohexoxy)-5,5-dimethyl-6H-benzo[h]quinazolin-7-yl]-2-cyano-N-methyl-ethanesulfonamide], in assay [1], the negative logarithm of the IC50 (pIC50) was greater than 7.52. For the same compound, the GI50 in assay [2] (Homo sapiens, CAL-51, 72 h) was less than 100 nM; in assay [3] (Homo sapiens, MDA-MB-231, 72 h), 100 to 2000 nM.
In the same order, the values of `CC1(C)Cc2c(ccc(O[C@H]3CC[C@H](N)CC3)c2NC2CC2)-c2ncnc(N)c21` [Example 84, 8-(trans-4-aminocyclohexoxy)-N7-cyclopropyl-5,5-dimethyl-6H-benzo[h]quinazoline-4,7-diamine] are 7.00 to 7.52, less than 100 nM and 100 to 2000 nM.
In the same order, the values of `CCCN(CCO)c1c(O[C@H]2CC[C@@H](N)CC2)ccc2c1CC(C)(C)c1c(N)ncnc1-2` [Example 23, 2-[[4-amino-8-(cis-4-aminocyclohexoxy)-5,5-dimethyl-6H-benzo[h]quinazolin-7-yl]-propyl-amino]ethanol] are greater than 7.52, 100 to 2000 nM and 100 to 2000 nM.
In the same order, the values of `CC(=O)Nc1c(O[C@H]2CC[C@H](N)CC2)ccc2c1CC(C)(C)c1c(N)ncnc1-2` [Example 6, N-[4-amino-8-(trans-4-aminocyclohexoxy)-5,5-dimethyl-6H-benzo[h]quinazolin-7-yl]acetamide] are 6.00 to 7.00, 100 to 2000 nM and greater than 2000 nM.
As for `CC1(C)Cc2c(ccc(O[C@H]3CC[C@H](N)CC3)c2S(=O)(=O)CCC#N)-c2ncnc(N)c21` [Example 112, 3-[[4-amino-8-(trans-4-aminocyclohexoxy)-5,5-dimethyl-6H-benzo[h]quinazolin-7-yl]sulfonyl]propanenitrile], the negative logarithm of the IC50 (pIC50) in assay [1] was 7.00 to 7.52. Also, the GI50 in assay [2] (Homo sapiens, CAL-51, 72 h) was 100 to 2000 nM; in assay [3] (Homo sapiens, MDA-MB-231, 72 h), greater than 2000 nM.
In the same order, the values of `CN(c1c(O[C@H]2CC[C@H](N)CC2)ccc2c1CC(C)(C)c1c(N)ncnc1-2)S(=O)(=O)CCO` [Example 44, N-[4-amino-8-(4-trans-aminocyclohexoxy)-5,5-dimethyl-6H-benzo[h]quinazolin-7-yl]-2-hydroxy-N-methyl-ethanesulfonamide] are greater than 7.52, 100 to 2000 nM and 100 to 2000 nM.
For `COCCNc1c(O[C@H]2CC[C@H](N)CC2)ccc2c1CC1(CCCC1)c1c(N)ncnc1-2` [Example 62, 8-(trans-4-aminocyclohexoxy)-N7-(2-methoxyethyl)spiro[6H-benzo[h]quinazoline-5,1′-cyclopentane]-4,7-diamine], in assay [1], the pIC50 was 6.00 to 7.00. The GI50 was in the range of 100 to 2000 nM in assay [2] (Homo sapiens, CAL-51, 72 h) and 100 to 2000 nM in assay [3] (Homo sapiens, MDA-MB-231, 72 h).
For the compound `CN(C)CCOc1ccc2c(c1N(C)CCC#N)CC(C)(C)c1c(N)ncnc1-2` [Example 123, 3-[[4-amino-8-[2-(dimethylamino)ethoxy]-5,5-dimethyl-6H-benzo[h]quinazolin-7-yl]-methyl-amino]propanenitrile], the pIC50 in assay [1] was greater than 7.52. In addition, the GI50 is less than 100 nM in assay [2] (Homo sapiens, CAL-51, 72 h) and less than 100 nM in assay [3] (Homo sapiens, MDA-MB-231, 72 h).
